Laboratory results reported in US20240415852A1, “ORAL CODELIVERY OF NAVITOCLAX AND Bcl2 siRNA TREATING GASTIC CANCER” (Board of Regents, The University of Texas System, priority 2023, published 2024).

Tests used:
platelet = settings: reported in literature; cited from earlier work
[1] = test system: adenocarcinoma gastric cell line (AGS); test: Cytotoxicity / cell viability, MTT assay; type: cell-based; settings: human, 24 h
Description: The cytotoxicity of the nanoparticle formulation was studied using adenocarcinoma gastric cell line (AGS). Cells were grown in F-12K media supplemented with 20% fetal bovine serum at 5% CO2 humidified atmosphere. Cells were harvested using trypsin and 1×10^4 cells with 100 μL of serum free media per well was plated in 96-well plate and incubated for 24 and 48 h. At end of time interval, media was removed and known concentrations of samples 1×PBS, Navi, GADA/Navi, GADA/Navi/Bcl2 siRNA, GADA/Bcl2 siRNA, Navi/Bcl2 siRNA, (Navi 10, 20, 30, 40, and 50 μM and Bcl2 siRNA 20, 40, 60, 80, and 100 nM) and GADA were added to the cells. The plate was then incubated for 24 h and 48 h. Cell viability was measured using MTT cell proliferation assay kit according to manufacturer's instruction. The absorbance of MTT was measured by using a SYNERGY H1 microplate reader (BioTek) at a wavelength of 570 nm and subtracted the background absorbance recorded at 630 nm.
The mitochondrial enzymes are responsible for reducing the tetrazolium salt (MTT) into purple formazan crystals which is indicator of cell viability/cytotoxicity. The therapeutic effect of formulations was carried out by quantifying the cell viability using MTT assay. […]

## CC1(C)CCC(c2ccc(Cl)cc2)=C(CN2CCN(c3ccc(C(=O)NS(=O)(=O)c4ccc(N[C@H](CCN5CCOCC5)CSc5ccccc5)c(S(=O)(=O)C(F)(F)F)c4)cc3)CC2)C1 [Navitoclax]
platelet
  Platelet apoptosis, thrombocytopenia: induced platelet apoptosis, resulting in severe thrombocytopenia
[1]
  Cell viability: 65.2±5.32%
